US12360118B2, “Method for protein kinase activity ranking” (KINOMICA LIMITED, priority 2015, dated 2025)

Columns and labels:
[1] = test system: eight haematological cell-lines; experiment: Viability of haematological cell-lines (Guava ViaCount) and sensitivity coefficient (SC); type: cell-based; conditions: nine kinase inhibitors of Table 1
Procedure: B-cell lymphoma and leukemia cell-lines were routinely maintained in RPMI-1640 medium supplemented with 10% fetal-bovine serum (FBS) and 100 U·mL^−1 penicillin/streptomycin (P/S). Cells were maintained at a confluency of 0.5-2.0×10^6 cells·mL^−1. Stromal cells were grown in IMDM medium (supplemented with 10% FBS and 100 U·mL^−1 P/S) and maintained at a confluency of 2.0-30.0×10^6 cells in 175 cm^2 flasks. MS-5 conditioned IMDM medium was generated by growing stromal cells in IMDM for 3 days. All cells were kept at 37° C. in a humidified atmosphere at 5% CO2.
Cell-lines were seeded in 96 well plates (10,000 cells-well-), left overnight and treated with vehicle, or 1 to 1000 nM of AZD-5438 (CDK2i;), GF-109203X (PKCαi; Tocris), PF-3758309 (PAKi; Calbiochem), Trametinib (MEKi; Selleckchem), MK-2206 (AKTi; Selleckchem), KU-0063794 (mTORi; Chemdea) or TAK 715 (P38αi;). Cells were also treated with 0.01 to 10 μM of PKC-412 (PKC/Flt3i; Tocris) or 0.1 to 10 μM of TBB (CK2i; Sigma). After 72 h, cells were stained with Guava ViaCount reagent (Millipore) as indicated by the manufacturer and cell number and viability was measured using a Guava EasyCyte Plus instrument. […] After 72 h, cells were stained with Guava ViaCount reagent and cell number and viability was measured. […] Flow cytometry data were analyzed using CytoSoft (v2.5.7). IC50 values were calculated using Graphpad PRISM (v5.03). […]

[2] = test system: primary AML cells; experiment: Viability of primary AML cells (Guava ViaCount), IC50 and SC; type: cell-based, human; conditions: 36 primary AML cases; threshold 50% reduction in viability at 1 μM
Procedure: All patients gave informed consent for the storage of their blood cells for research purposes. Each procedure was conducted in accordance with the East London and City Research Ethics Committee, as previously described (Miraki-Moud, F. et al. Blood 125, 4060-4068 (2015)). All studies comply with the rules of the Review Board and by the revised Helsinki protocol. Peripheral blood was extracted from AML patients at St Bartholomew's Hospital and mononuclear cells, isolated using Ficoll gradient followed by red cell lysis, were stored in liquid N2. Primary AML blasts were thawed following standard procedures: briefly, vials were defrosted at 37 C and exposed to 500 μg of DNAse (Sigma) for 5 minutes. […] Cell number and viability were determined by trypan blue staining using a Vi-CELL XR cell viability analyser (Beckman Coulter).
Cell-lines were seeded in 96 well plates (10,000 cells-well-), left overnight and treated with vehicle, or 1 to 1000 nM of AZD-5438 (CDK2i;), GF-109203X (PKCαi; Tocris), PF-3758309 (PAKi; Calbiochem), Trametinib (MEKi; Selleckchem), MK-2206 (AKTi; Selleckchem), KU-0063794 (mTORi; Chemdea) or TAK 715 (P38αi;). […] After 72 h, cells were stained with Guava ViaCount reagent (Millipore) as indicated by the manufacturer and cell number and viability was measured using a Guava EasyCyte Plus instrument. […] Flow cytometry data were analyzed using CytoSoft (v2.5.7). […]

[3] = test system: tyrosine kinases; experiment: K-score (Kinase Activity Ranking) of cells after pervanadate treatment, LC-MS/MS phosphoproteomics; type: cell-based; conditions: 1 mM sodium pervanadate, 30 min; lysates mixed with untreated lysates
Procedure: Technical replicates were averaged and peak areas for each phosphopeptide ion were then normalized to the sum of peptide intensities for each sample. […] Kinase Activity Ranking (KAR) was calculated for kinase K using the equation below (where m=the number of phosphorylation sites in the dataset matched to kinase K; α=the normalized intensity of the phosphorylation site i; l=the total number of phosphorylation sites in the dataset regardless of any kinase-substrate association; β=the normalized intensity of the phosphorylation site j; t=the total number of known target phosphorylation sites in the PhosphoSitePlus database for kinase K). […]
P31/Fuj cells were exposed to 1 mM sodium pervanadate or left untreated during 30 min (Sodium pervanadate was prepared by mixing 30% H2O2 and 100 mM Na3VO4 pH 8.0 at 1:100 ratio during 15 min). […] After homogenization and protein quantification, treated and untreated cell lysates were mixed to a final protein concentration of 1.0 μg·μL^−1. […]
We first investigated the reproducibility and quantitative nature of Kinase Activity Ranking (KAR, which produces K-scores) as a measure of net kinase activity. […] To test the reproducibility of the analysis, we performed this experiment on three independent occasions and each was analyzed in analytical triplicate. […]

[4] = biological target: CDK2 (Homo sapiens, UniProt P24941); conditions: off-target of the PKCα inhibitor; cited from earlier work

Q: With Cc1nc(Nc2[nH]nc3c2CN(C(=O)N[C@H](CN(C)C)c2ccccc2)C3(C)C)c2sccc2n1 [PAKi, PF03758309] as the compound, how does the “Ranking of the kinase inhibitors based on their SCs (sensitivity coefficients)” value [1] read?
A: ranked the highest

Q: Which “Ranking of the kinase inhibitors based on their SCs (sensitivity coefficients)” value [1] does the source give for Cc1ncc(-c2ccnc(Nc3ccc(S(C)(=O)=O)cc3)n2)n1C(C)C [CDK2i, AZD5438] here?
A: ranked the highest

Q: For O=C(O)c1ccc2c(c1)nc(Nc1cccc(Cl)c1)c1ccncc12 [CK2i, CX4945], which “Number of cases sensitive to this inhibitor only” value [2] is on record?
A: Five

Q: With CC(=O)Nc1cccc(-n2c(=O)n(C3CC3)c(=O)c3c(Nc4ccc(I)cc4F)n(C)c(=O)c(C)c32)c1 [MEK1i, GSK1120212] as the compound, how does the “Number of cases sensitive to this inhibitor only” value [2] read?
A: three

Q: Which “Change of the K-Score of tyrosine kinases” value [3] does the source give for sodium pervanadate [pV] here?
A: increase

Q: Which “Inhibition of CDK2” value [4] does the source give for CN(C)CCCn1cc(C2=C(c3c[nH]c4ccccc34)C(=O)NC2=O)c2ccccc21 [PKCαi, GF109203X] here?
A: high potency
